For test [1], the target named is T1, D(4) dopamine receptor (Homo sapiens, UniProt P21917).
T1 sequence (P21917 whole entry): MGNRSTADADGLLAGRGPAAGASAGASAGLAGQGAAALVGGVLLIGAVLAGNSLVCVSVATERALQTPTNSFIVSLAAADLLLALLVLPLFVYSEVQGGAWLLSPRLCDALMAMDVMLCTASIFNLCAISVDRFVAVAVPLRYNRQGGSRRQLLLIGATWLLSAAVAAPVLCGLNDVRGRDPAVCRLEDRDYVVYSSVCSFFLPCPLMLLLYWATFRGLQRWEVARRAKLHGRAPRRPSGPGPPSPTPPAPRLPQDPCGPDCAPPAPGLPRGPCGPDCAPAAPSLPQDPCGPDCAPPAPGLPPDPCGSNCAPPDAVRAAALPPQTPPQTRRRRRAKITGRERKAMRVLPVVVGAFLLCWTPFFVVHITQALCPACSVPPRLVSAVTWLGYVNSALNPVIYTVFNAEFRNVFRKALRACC
Put plainly: Potency was measured by the displacement of [3H]-spiperone binding to human D4 dopaminergic receptor. In general terms: In a radioligand displacement assay an active substance lowers the binding of a labelled ligand.

The target in a further test is D(2) dopamine receptor (Homo sapiens, UniProt P14416). Put plainly: Inhibitory concentration against binding of [3H]spiperone to human D2 dopaminergic receptor.
The target of test [2] is T1, D(4) dopamine receptor. Nature of the test: Inhibitory concentration against binding of [3H]spiperone to human D4 dopaminergic receptor.

Molecules are shown by their SMILES. pIC50, pKi: −log10 of the molar value.

One may read the pKi as −log10 of the Ki, conventionally taken in molar units. The low end stands for a large Ki, the high end for a small Ki. In general, pIC50 refers to −log10 of the IC50, conventionally taken in molar units.

D(2) dopamine receptor, sequence (P14416 whole entry): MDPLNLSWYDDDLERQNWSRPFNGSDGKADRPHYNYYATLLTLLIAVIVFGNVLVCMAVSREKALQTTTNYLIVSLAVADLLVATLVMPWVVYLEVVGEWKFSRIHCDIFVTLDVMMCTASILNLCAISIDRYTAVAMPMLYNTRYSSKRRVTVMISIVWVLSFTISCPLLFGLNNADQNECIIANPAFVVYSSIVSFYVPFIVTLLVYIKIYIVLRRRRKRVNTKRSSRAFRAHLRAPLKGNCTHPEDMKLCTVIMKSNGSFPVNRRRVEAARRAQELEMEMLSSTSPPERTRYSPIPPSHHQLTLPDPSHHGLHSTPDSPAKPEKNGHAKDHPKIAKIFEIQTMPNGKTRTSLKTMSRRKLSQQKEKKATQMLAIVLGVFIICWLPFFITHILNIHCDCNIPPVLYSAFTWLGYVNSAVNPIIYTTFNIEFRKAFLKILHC

As for `Oc1ccc(CC2NCCc3cc(O)c(O)cc32)cc1O` (centres undefined), the negative-log Ki (pKi) on D(4) dopamine receptor [1] was 5.60.

As for `Oc1ccc2c(c1)CCN2`, the negative logarithm of the IC50 (pIC50) at D(2) dopamine receptor is 5.99; at D(4) dopamine receptor [2] it was 4.41. The molecule also gave a pKi on D(4) dopamine receptor [1] of 6.30.

In the case of `CN1CCc2cc(O)c(O)cc2C1Cc1ccc(O)c(O)c1` (centres undefined), the negative-log Ki (pKi) on D(4) dopamine receptor [1] was 6.46.

Consider `OC[C@H]1O[C@H](Oc2ccc(CC3NCCc4cc(O)c(O)cc43)cc2)[C@H](O)[C@H](O)[C@H]1O` (some centres undefined), for which, at D(4) dopamine receptor [1], the pKi was 5.92. The molecule also had a pIC50 at D(4) dopamine receptor [2] of 4.32.

Regarding `CC1NCCc2cc(O)c(O)cc21` (centres undefined), on D(4) dopamine receptor [1], the pKi was 5.19.

On D(4) dopamine receptor [1], `Oc1ccc(CC2NCCc3cc(O)c(O)cc32)cc1` (centres undefined) [HIGENAMINE] gave a pKi of 5.51.

The values above are taken from ChEMBL document CHEMBL1129926, “D4 dopamine receptor-selective compounds from the Chinese plant Phoebe chekiangensis” (Bioorg Med Chem Lett, 1997).
